Measurements: ChEMBL document CHEMBL3392983, “Synthesis, antimicrobial activity and molecular docking of novel tetracyclic scaffolds incorporating a flavonoid framework with medium sized oxygen heterocycles” (2015)
≈ marks a conversion by molar mass, not a printed value.

Tested on: Escherichia coli
Assay: Bactericidal activity against Escherichia coli ATCC 10536 assessed as microbial killing during 18 hrs post sub-culture onto drug-free solid media by broth dilution method
Type: functional
Settings: ATCC 10536, 18 h, read-out: MBC99.9

Compound | MBC [µM]
O=c1c2c(oc3ccc(F)cc13)-c1ccccc1OCCCCO2 | 0.055 (≈ 0.0179 µg/mL)
O=c1c2c(oc3ccc(Cl)cc13)-c1ccccc1OCCO2 | 0.027 (≈ 0.0085 µg/mL)
O=c1c2c(oc3ccc(Br)cc13)-c1ccccc1OCCCCCO2 | 0.02 (≈ 0.00803 µg/mL)
O=c1c2c(oc3ccc(Br)cc13)-c1ccccc1OCCCCO2 | 0.027 (≈ 0.0105 µg/mL)
O=c1c2c(oc3ccc(Br)cc13)-c1ccccc1OCCO2 | 0.061 (≈ 0.0219 µg/mL)

Tested on: Staphylococcus aureus
Assay: Bactericidal activity against Staphylococcus aureus ATCC 25923 assessed as microbial killing during 18 hrs post sub-culture onto drug-free solid media by broth dilution method
Type: functional
Settings: ATCC 25923, 18 h, read-out: MBC99.9

Compound | MBC [µM]
O=c1c2c(oc3ccc(F)cc13)-c1ccccc1OCCCCO2 | 0.081 (≈ 0.0264 µg/mL)
O=c1c2c(oc3ccc(Cl)cc13)-c1ccccc1OCCO2 | 0.033 (≈ 0.0104 µg/mL)
O=c1c2c(oc3ccc(Br)cc13)-c1ccccc1OCCCCCO2 | 0.04 (≈ 0.0161 µg/mL)
O=c1c2c(oc3ccc(Br)cc13)-c1ccccc1OCCCCO2 | 0.024 (≈ 0.00929 µg/mL)
O=c1c2c(oc3ccc(Br)cc13)-c1ccccc1OCCO2 | 0.023 (≈ 0.00826 µg/mL)

Tested on: Pseudomonas aeruginosa
Assay: Bactericidal activity against Pseudomonas aeruginosa ATCC 10145 assessed as microbial killing during 18 hrs post sub-culture onto drug-free solid media by broth dilution method
Type: functional
Settings: ATCC 10145, 18 h, read-out: MBC99.9

Compound | MBC [µM]
O=c1c2c(oc3ccc(F)cc13)-c1ccccc1OCCCCO2 | 0.03 (≈ 0.00979 µg/mL)
O=c1c2c(oc3ccc(Cl)cc13)-c1ccccc1OCCO2 | 0.063 (≈ 0.0198 µg/mL)
O=c1c2c(oc3ccc(Br)cc13)-c1ccccc1OCCCCCO2 | 0.05 (≈ 0.0201 µg/mL)
O=c1c2c(oc3ccc(Br)cc13)-c1ccccc1OCCCCO2 | 0.024 (≈ 0.00929 µg/mL)
O=c1c2c(oc3ccc(Br)cc13)-c1ccccc1OCCO2 | 0.061 (≈ 0.0219 µg/mL)

Tested on: Escherichia coli
Assay: Antimicrobial activity against Escherichia coli ATCC 10536 assessed as inhibition of microbial growth incubated for 24 hrs by broth dilution method
Type: functional
Settings: not given

Compound | MIC [µM]
GENTAMICIN SULFATE | < 0.017

Same assay, conditions: ATCC 10536, 24 h

Compound | MIC [µM]
O=c1c(O)c(-c2ccccc2O)oc2ccc(F)cc12 | 0.22
O=c1c(O)c(-c2ccccc2O)oc2ccc(Cl)cc12 | 0.14
O=c1c(O)c(-c2ccccc2O)oc2ccccc12 | 0.177
O=c1c2c(oc3ccc(F)cc13)-c1ccccc1OCCCCO2 | 0.062
O=c1c(O)c(-c2ccccc2O)oc2ccc(Br)cc12 | 0.135
O=c1c2c(oc3ccc(Cl)cc13)-c1ccccc1OCCO2 | 0.047
O=c1c2c(oc3ccc(Br)cc13)-c1ccccc1OCCCCCO2 | 0.025
O=c1c2c(oc3ccc(Br)cc13)-c1ccccc1OCCCCO2 | 0.038
O=c1c2c(oc3ccc(Br)cc13)-c1ccccc1OCCO2 | 0.097

Tested on: Staphylococcus aureus
Assay: Antimicrobial activity against Staphylococcus aureus ATCC 25923 assessed as inhibition of microbial growth incubated for 24 hrs by broth dilution method
Type: functional
Settings: not given

Compound | MIC [µM]
GENTAMICIN SULFATE | < 0.017

Same assay, conditions: ATCC 25923, 24 h

Compound | MIC [µM]
O=c1c(O)c(-c2ccccc2O)oc2ccc(F)cc12 | 0.259
O=c1c(O)c(-c2ccccc2O)oc2ccc(Cl)cc12 | 0.19
O=c1c(O)c(-c2ccccc2O)oc2ccccc12 | 0.198
O=c1c2c(oc3ccc(F)cc13)-c1ccccc1OCCCCO2 | 0.153
O=c1c(O)c(-c2ccccc2O)oc2ccc(Br)cc12 | 0.152
O=c1c2c(oc3ccc(Cl)cc13)-c1ccccc1OCCO2 | 0.033
O=c1c2c(oc3ccc(Br)cc13)-c1ccccc1OCCCCCO2 | 0.051
O=c1c2c(oc3ccc(Br)cc13)-c1ccccc1OCCCCO2 | 0.079
O=c1c2c(oc3ccc(Br)cc13)-c1ccccc1OCCO2 | 0.027

Tested on: Pseudomonas aeruginosa
Assay: Antimicrobial activity against Pseudomonas aeruginosa ATCC 10145 assessed as inhibition of microbial growth incubated for 24 hrs by broth dilution method
Type: functional
Settings: not given

Compound | MIC [µM]
GENTAMICIN SULFATE | < 0.017

Same assay, conditions: ATCC 10145, 24 h

Compound | MIC [µM]
O=c1c(O)c(-c2ccccc2O)oc2ccc(F)cc12 | 0.275
O=c1c(O)c(-c2ccccc2O)oc2ccc(Cl)cc12 | 0.157
O=c1c(O)c(-c2ccccc2O)oc2ccccc12 | 0.157
O=c1c2c(oc3ccc(F)cc13)-c1ccccc1OCCCCO2 | 0.076
O=c1c(O)c(-c2ccccc2O)oc2ccc(Br)cc12 | 0.12
O=c1c2c(oc3ccc(Cl)cc13)-c1ccccc1OCCO2 | 0.063
O=c1c2c(oc3ccc(Br)cc13)-c1ccccc1OCCCCCO2 | 0.062
O=c1c2c(oc3ccc(Br)cc13)-c1ccccc1OCCCCO2 | 0.051
O=c1c2c(oc3ccc(Br)cc13)-c1ccccc1OCCO2 | 0.097

Tested on: Candida tropicalis
Assay: Antimicrobial activity against Candida tropicalis ATCC 750 assessed as inhibition of microbial growth incubated for 72 hrs by broth dilution method
Type: functional
Settings: ATCC 750, 72 h

Compound | MIC [µM]
O=c1c(O)c(-c2ccccc2O)oc2ccc(F)cc12 | > 0.735
O=c1c(O)c(-c2ccccc2O)oc2ccc(Cl)cc12 | > 0.694
O=c1c(O)c(-c2ccccc2O)oc2ccccc12 | > 0.787
O=c1c2c(oc3ccc(F)cc13)-c1ccccc1OCCCCO2 | > 0.613
O=c1c(O)c(-c2ccccc2O)oc2ccc(Br)cc12 | > 0.602
OC(Cn1cncn1)(Cn1cncn1)c1ccc(F)cc1F [FLUCONAZOLE] | ≤ 0.033
O=c1c2c(oc3ccc(Cl)cc13)-c1ccccc1OCCO2 | > 0.636
O=c1c2c(oc3ccc(Br)cc13)-c1ccccc1OCCCCCO2 | > 0.5
O=c1c2c(oc3ccc(Br)cc13)-c1ccccc1OCCCCO2 | > 0.518
O=c1c2c(oc3ccc(Br)cc13)-c1ccccc1OCCO2 | > 0.558

Tested on: Bacillus subtilis
Assay: Bactericidal activity against Bacillus subtilis ATCC 6633 assessed as microbial killing during 18 hrs post sub-culture onto drug-free solid media by broth dilution method
Type: functional
Settings: ATCC 6633, 18 h, read-out: MBC99.9

Compound | MBC [µM]
O=c1c2c(oc3ccc(F)cc13)-c1ccccc1OCCCCO2 | 0.04 (≈ 0.0131 µg/mL)
O=c1c2c(oc3ccc(Cl)cc13)-c1ccccc1OCCO2 | 0.035 (≈ 0.011 µg/mL)
O=c1c2c(oc3ccc(Br)cc13)-c1ccccc1OCCCCCO2 | 0.035 (≈ 0.014 µg/mL)
O=c1c2c(oc3ccc(Br)cc13)-c1ccccc1OCCCCO2 | 0.053 (≈ 0.0205 µg/mL)
O=c1c2c(oc3ccc(Br)cc13)-c1ccccc1OCCO2 | 0.023 (≈ 0.00826 µg/mL)

Tested on: Klebsiella pneumoniae
Assay: Antimicrobial activity against Klebsiella pneumoniae ATCC 10031 assessed as inhibition of microbial growth incubated for 24 hrs by broth dilution method
Type: functional
Settings: not given

Compound | MIC [µM]
GENTAMICIN SULFATE | < 0.017

Same assay, conditions: ATCC 10031, 24 h

Compound | MIC [µM]
O=c1c(O)c(-c2ccccc2O)oc2ccc(F)cc12 | 0.202
O=c1c(O)c(-c2ccccc2O)oc2ccc(Cl)cc12 | 0.138
O=c1c(O)c(-c2ccccc2O)oc2ccccc12 | 0.177
O=c1c2c(oc3ccc(F)cc13)-c1ccccc1OCCCCO2 | 0.046
O=c1c(O)c(-c2ccccc2O)oc2ccc(Br)cc12 | 0.135
O=c1c2c(oc3ccc(Cl)cc13)-c1ccccc1OCCO2 | 0.047
O=c1c2c(oc3ccc(Br)cc13)-c1ccccc1OCCCCCO2 | 0.037
O=c1c2c(oc3ccc(Br)cc13)-c1ccccc1OCCCCO2 | 0.09
O=c1c2c(oc3ccc(Br)cc13)-c1ccccc1OCCO2 | 0.083

Tested on: Candida albicans
Assay: Antimicrobial activity against Candida albicans ATCC 10231 assessed as inhibition of microbial growth incubated for 72 hrs by broth dilution method
Type: functional
Settings: ATCC 10231, 72 h

Compound | MIC [µM]
O=c1c(O)c(-c2ccccc2O)oc2ccc(F)cc12 | > 0.735
O=c1c(O)c(-c2ccccc2O)oc2ccc(Cl)cc12 | > 0.694
O=c1c(O)c(-c2ccccc2O)oc2ccccc12 | > 0.787
O=c1c2c(oc3ccc(F)cc13)-c1ccccc1OCCCCO2 | > 0.613
O=c1c(O)c(-c2ccccc2O)oc2ccc(Br)cc12 | > 0.602
OC(Cn1cncn1)(Cn1cncn1)c1ccc(F)cc1F [FLUCONAZOLE] | ≤ 0.033
O=c1c2c(oc3ccc(Cl)cc13)-c1ccccc1OCCO2 | > 0.636
O=c1c2c(oc3ccc(Br)cc13)-c1ccccc1OCCCCCO2 | > 0.5
O=c1c2c(oc3ccc(Br)cc13)-c1ccccc1OCCCCO2 | > 0.518
O=c1c2c(oc3ccc(Br)cc13)-c1ccccc1OCCO2 | > 0.558

Tested on: Bacillus subtilis
Assay: Antimicrobial activity against Bacillus subtilis ATCC 6633 assessed as inhibition of microbial growth incubated for 24 hrs by broth dilution method
Type: functional
Settings: not given

Compound | MIC [µM]
GENTAMICIN SULFATE | < 0.017

Same assay, conditions: ATCC 6633, 24 h

Compound | MIC [µM]
O=c1c(O)c(-c2ccccc2O)oc2ccc(F)cc12 | 0.167
O=c1c(O)c(-c2ccccc2O)oc2ccc(Cl)cc12 | 0.173
O=c1c(O)c(-c2ccccc2O)oc2ccccc12 | 0.218
O=c1c2c(oc3ccc(F)cc13)-c1ccccc1OCCCCO2 | 0.092
O=c1c(O)c(-c2ccccc2O)oc2ccc(Br)cc12 | 0.167
O=c1c2c(oc3ccc(Cl)cc13)-c1ccccc1OCCO2 | 0.065
O=c1c2c(oc3ccc(Br)cc13)-c1ccccc1OCCCCCO2 | 0.063
O=c1c2c(oc3ccc(Br)cc13)-c1ccccc1OCCCCO2 | 0.066
O=c1c2c(oc3ccc(Br)cc13)-c1ccccc1OCCO2 | 0.027
